{"source": "patent US11459387B2", "about": "“Anti-CD147 antibody” (DAIICHI SANKYO COMPANY, LIMITED, priority 2017, dated 2022)", "key": {"[1]": {"system": "human pancreatic line MIA PaCa-2", "assay": "MIA PaCa-2 model in Nude mice, humanized antibodies with different binding activities", "format": "in vivo", "details": "gemcitabine 400 mg/kg via the tail vein 3 and 10 days after the inoculation", "procedure": "5×10^6 cells of human pancreatic line MIA PaCa-2 were suspended in PBS containing 50% GFR-Matrigel (Corning Inc., Cat. 354230), and the suspension was inoculated subcutaneously into the axilla of 4-week old female Nude mice (BALB/c Slc-nu/nu, purchased from Japan SLC, Inc). […] As a control drug, gemcitabine (purchased from Eli Lilly Japan K.K.), which is a standard therapeutic agent for pancreatic cancer, was administered to cancer-bearing mice via the tail vein at 400 mg/kg 3 and 10 days after the inoculation (n=6). The major axis and the minor axis of the inoculated tumor were measured twice a week using an electronic digital caliper (available from MITUTOYO CORPORATION) to calculate the tumor volume by the following formula. Tumor volume (mm^3)=½×minor axis (mm)×minor axis (mm)×major axis (mm)"}, "[2]": {"system": "gemcitabine-resistant MIA PaCa-2 tumors", "assay": "Gemcitabine-resistant MIA PaCa-2 pancreatic cancer tumor model in NOD-scid mice", "format": "in vivo, human", "text": "The antitumor efficacy of the CD147 antibody in a gemcitabine-resistant pancreatic cancer tumor model was investigated. 5×10^6 cells of human pancreatic line MIA PaCa-2 were suspended in PBS containing 50% GFR-Matrigel (Corning Inc., Cat. 354230), and the suspension was inoculated subcutaneously into the axilla of 5 week-old female NOD-scid mice (NOD. CB17-Prkdc/J, CHARLES RIVER LABORATORIES JAPAN, INC). Gemcitabine (Eli Lilly Japan K.K.), which is a standard therapeutic agent for pancreatic cancer, was intraperitoneally administered at 400 mg/kg 6 days after the inoculation, and grouping of mice in which gemcitabine-resistant tumors were confirmed to grow was performed based on tumor size one week later. Gemcitabine was intraperitoneally administered to the control group at 400 mg/kg (n=5) 13 days (grouping date) and 20 days after the inoculation. […] The major axis and the minor axis of the inoculated tumor were measured twice a week using an electronic digital caliper (available from MITUTOYO CORPORATION) to calculate the tumor volume by the following formula. […]"}, "[3]": {"system": "human pancreatic line BxPC-3", "assay": "SMAD4-negative BxPC-3 pancreatic cancer-bearing model in BALB/c-nu mice", "format": "in vivo", "details": "gemcitabine 200 mg/kg via the tail vein 8, 15, 22 days after the inoculation", "text": "The transcription factor, SMAD4, is known as one of the molecules important for activation of SMAD signaling (Zang, et al., Current Biology, 270-276, 1997). It is known that SMAD signaling is partially impaired due to genetic defects of SMAD4 in some pancreatic cancers (Hahn, et al., Science, 350-353, 1996). […] 2.5×10^6 cells of human pancreatic line BxPC-3 (ATCC, Cat. CRL-1687) were suspended in PBS containing […] (Corning Inc., Cat. 354234), and the suspension was inoculated subcutaneously into the axilla of 6 week-old female BALB/c-nu mouse (CAnN. Cg-Foxn1nu/CrlCrlj, purchased from CHARLES RIVER LABORATORIES JAPAN, INC). […] As a control drug, gemcitabine (Eli Lilly Japan K.K., Gemzar®) that is a therapeutic agent for pancreatic cancer was administered to mice bearing tumor via the tail vein at 200 mg/kg 8, 15, 22 days after the inoculation (n=5). The major axis and the minor axis of the inoculated tumor were measured twice a week using an electronic digital caliper (available from MITUTOYO CORPORATION) to calculate the tumor volume by the following formula. Tumor volume (mm^3)=½×minor axis (mm)×minor axis (mm)×major axis (mm)"}, "[4]": {"system": "human pancreatic line MIA PaCa-2", "assay": "MIA PaCa-2 pancreatic xenograft model in NOD-scid mice, humanized antibodies", "format": "in vivo", "details": "gemcitabine 400 mg/kg ip 7 and 14 days after the inoculation", "procedure": "5×10^6 cells of human pancreatic line MIA PaCa-2 were suspended in PBS containing 50% GFR-Matrigel (Corning Inc., Cat. 354230), and the suspension was inoculated subcutaneously into the axilla of 4 week-old female NOD-scid mice (NOD. CB17-Prkdc/J, purchased from CHARLES RIVER LABORATORIES JAPAN, INC). […] As a control drug, gemcitabine (purchased from Eli Lilly Japan K.K.) that is a standard therapeutic agent for pancreatic cancer was administered intraperitoneally to cancer-bearing mice at 400 mg/kg 7 and 14 days after the inoculation (n=5). The major axis and the minor axis of the inoculated tumor were measured twice a week using an electronic digital caliper (available from MITUTOYO CORPORATION) to calculate the tumor volume by the following formula."}}}
{"smiles": "Nc1ccn([C@@H]2O[C@H](CO)[C@@H](O)C2(F)F)c(=O)n1", "note": "[gemcitabine, reference compound]", "values": [{"measurement": "tumor growth inhibition rate", "setting": "[1]", "value": 66, "unit": "%"}, {"measurement": "average tumor size", "setting": "[2]; gemcitabine 400 mg/kg ip 6, 13 and 20 days after the inoculation, 28 days after the inoculation", "value": 1269, "unit": "mm^3"}, {"measurement": "regressing tumors (in words)", "setting": "[2]; gemcitabine 400 mg/kg ip alone", "value": "no regressing tumors were observed"}, {"measurement": "sensitivity of BxPC-3 tumor (in words)", "setting": "[3]", "value": "resistant"}, {"measurement": "tumor disappearance (in words)", "setting": "[4]", "value": "no tumor disappearance was recognized"}, {"measurement": "tumor growth inhibition rate", "setting": "[4]; NOD-scid mice", "value": 71, "unit": "%"}]}
